According to ChEMBL document CHEMBL3045239, “Synthesis and antimicrobial evaluation of novel benzo[b]thiophenes comprising -lactam nucleus” (2012):

How the values were obtained:
Format in all cases: functional
[1] = test system: Escherichia coli; assay: Antimicrobial activity against Escherichia coli at 1 mg/ml after 24 hr by agar well diffusion method; settings: read-out: DIZ
[2] = test system: Pseudomonas aeruginosa; assay: Antimicrobial activity against Pseudomonas aeruginosa at 1 mg/ml after 24 hr by agar well diffusion method; settings: read-out: DIZ
[3] = test system: Micrococcus luteus; assay: Antimicrobial activity against Micrococcus luteus at 1 mg/ml after 24 hr by agar well diffusion method; settings: read-out: DIZ
[4] = test system: Staphylococcus aureus; assay: Antimicrobial activity against Staphylococcus aureus at 1 mg/ml after 24 hr by agar well diffusion method; settings: read-out: DIZ
[5] = test system: Bacillus subtilis; assay: Antimicrobial activity against Bacillus subtilis at 1 mg/ml after 24 hr by agar well diffusion method; settings: read-out: DIZ
[6] = test system: Trichophyton longifusum; assay: Antimicrobial activity against Trichophyton longifusum at 200 ug/ml after 7 days by agar plate method; settings: 168 h
[7] = test system: Microsporum canis; assay: Antimicrobial activity against Arthroderma otae at 200 ug/ml after 7 days by agar plate method; settings: 168 h
[8] = test system: Candida albicans; assay: Antimicrobial activity against Candida albicans at 200 ug/ml after 7 days by agar plate method; settings: 168 h
[9] = test system: Fusarium solani; assay: Antimicrobial activity against Fusarium solani at 200 ug/ml after 7 days by agar plate method; settings: 168 h

## O=C(N[C@H](CO)[C@H](O)c1ccc([N+](=O)[O-])cc1)C(Cl)Cl [CHLORAMPHENICOL]
[1]
  zone of inhibition at 1000 µg/mL: 17 mm
[2]
  zone of inhibition at 1000 µg/mL: 19.6 mm
[3]
  zone of inhibition at 1000 µg/mL: 17.2 mm
[4]
  zone of inhibition at 1000 µg/mL: 16.4 mm
[5]
  zone of inhibition at 1000 µg/mL: 18.8 mm

## COc1ccc([C@@H]2[C@H](Oc3ccc(Cl)cc3Cl)C(=O)N2c2sc3c(c2C#N)C=C(/C=C/c2c(C)nn(-c4ccccc4)c2Cl)CC3(C)C)cc1O (relative stereo)
[1]
  zone of inhibition at 1000 µg/mL: 13.7 mm
[2]
  zone of inhibition at 1000 µg/mL: < 10 mm
[3]
  zone of inhibition at 1000 µg/mL: < 10 mm
[4]
  zone of inhibition at 1000 µg/mL: < 10 mm
[5]
  zone of inhibition at 1000 µg/mL: < 10 mm

## Cc1nn(-c2ccccc2)c(Cl)c1/C=C/C1=Cc2c(sc(N3C(=O)[C@@H](Oc4ccc(Cl)cc4Cl)[C@H]3c3ccccc3)c2C#N)C(C)(C)C1 (relative stereo)
[6]
  inhibition at 200 µg/mL: 40%
[1]
  zone of inhibition at 1000 µg/mL: 14.2 mm
[2]
  zone of inhibition at 1000 µg/mL: 11.7 mm
[3]
  zone of inhibition at 1000 µg/mL: < 10 mm
[4]
  zone of inhibition at 1000 µg/mL: < 10 mm
[5]
  zone of inhibition at 1000 µg/mL: 11.7 mm
[7]
  inhibition at 200 µg/mL: 50%

## Clc1ccc(COC(Cn2ccnc2)c2ccc(Cl)cc2Cl)c(Cl)c1 (stereo not given) [MICONAZOLE]
[6]
  inhibition at 200 µg/mL: 100%
[8]
  inhibition at 200 µg/mL: 90%
[9]
  inhibition at 200 µg/mL: 90%
[7]
  inhibition at 200 µg/mL: 90%

## Cc1nn(-c2ccccc2)c(Cl)c1/C=C/C1=Cc2c(sc(N3C(=O)[C@@H](Oc4ccc(Cl)cc4Cl)[C@H]3c3ccc(Cl)cc3)c2C#N)C(C)(C)C1 (relative stereo)
[6]
  inhibition at 200 µg/mL: 35%
[1]
  zone of inhibition at 1000 µg/mL: 13.9 mm
[2]
  zone of inhibition at 1000 µg/mL: 11.2 mm
[3]
  zone of inhibition at 1000 µg/mL: < 10 mm
[4]
  zone of inhibition at 1000 µg/mL: 10.6 mm
[5]
  zone of inhibition at 1000 µg/mL: 12.4 mm

## COc1ccc([C@@H]2[C@H](Oc3ccc(Cl)cc3Cl)C(=O)N2c2sc3c(c2C#N)C=C(/C=C/c2c(C)nn(-c4ccccc4)c2Cl)CC3(C)C)cc1 (relative stereo)
[1]
  zone of inhibition at 1000 µg/mL: 15.6 mm
[8]
  inhibition at 200 µg/mL: 30%
[2]
  zone of inhibition at 1000 µg/mL: 11.9 mm
[3]
  zone of inhibition at 1000 µg/mL: < 10 mm
[4]
  zone of inhibition at 1000 µg/mL: 11.3 mm
[9]
  inhibition at 200 µg/mL: 25%
[5]
  zone of inhibition at 1000 µg/mL: 12.5 mm

## C=CC1=C(C(=O)O)N2C(=O)[C@@H](NC(=O)/C(=N\OCC(=O)O)c3csc(N)n3)[C@H]2SC1 [CEFIXIME]
[1]
  zone of inhibition at 1000 µg/mL: 30 mm
[2]
  zone of inhibition at 1000 µg/mL: 17.8 mm
[3]
  zone of inhibition at 1000 µg/mL: 34.1 mm
[4]
  zone of inhibition at 1000 µg/mL: 36.1 mm
[5]
  zone of inhibition at 1000 µg/mL: 28.7 mm

## Cc1nn(-c2ccccc2)c(Cl)c1/C=C/C1=Cc2c(sc(N3C(=O)[C@@H](Oc4ccc(Cl)cc4Cl)[C@H]3c3ccc(N(C)C)cc3)c2C#N)C(C)(C)C1 (relative stereo)
[1]
  zone of inhibition at 1000 µg/mL: 14.6 mm
[2]
  zone of inhibition at 1000 µg/mL: < 10 mm
[3]
  zone of inhibition at 1000 µg/mL: < 10 mm
[4]
  zone of inhibition at 1000 µg/mL: < 10 mm
[5]
  zone of inhibition at 1000 µg/mL: < 10 mm

## Cc1nn(-c2ccccc2)c(Cl)c1/C=C/C1=Cc2c(sc(N3C(=O)[C@@H](Oc4ccc(Cl)cc4Cl)[C@H]3c3ccc(Cl)c(Cl)c3)c2C#N)C(C)(C)C1 (relative stereo)
[1]
  zone of inhibition at 1000 µg/mL: 12 mm
[2]
  zone of inhibition at 1000 µg/mL: 10.8 mm
[3]
  zone of inhibition at 1000 µg/mL: < 10 mm
[4]
  zone of inhibition at 1000 µg/mL: < 10 mm
[5]
  zone of inhibition at 1000 µg/mL: 11.2 mm

## Cc1nn(-c2ccccc2)c(Cl)c1/C=C/C1=Cc2c(sc(N3C(=O)[C@@H](Oc4ccc(Cl)cc4Cl)[C@H]3c3ccc([N+](=O)[O-])cc3)c2C#N)C(C)(C)C1 (relative stereo)
[1]
  zone of inhibition at 1000 µg/mL: 14 mm
[2]
  zone of inhibition at 1000 µg/mL: 12.1 mm
[3]
  zone of inhibition at 1000 µg/mL: < 10 mm
[4]
  zone of inhibition at 1000 µg/mL: < 10 mm
[5]
  zone of inhibition at 1000 µg/mL: 11.2 mm

## Cc1nn(-c2ccccc2)c(Cl)c1/C=C/C1=Cc2c(sc(N3C(=O)[C@@H](Oc4ccc(Cl)cc4Cl)[C@H]3c3ccccc3O)c2C#N)C(C)(C)C1 (relative stereo)
[6]
  inhibition at 200 µg/mL: 89%
[1]
  zone of inhibition at 1000 µg/mL: 17.6 mm
[8]
  inhibition at 200 µg/mL: 91%
[2]
  zone of inhibition at 1000 µg/mL: 11.6 mm
[3]
  zone of inhibition at 1000 µg/mL: < 10 mm
[4]
  zone of inhibition at 1000 µg/mL: 12.3 mm
[5]
  zone of inhibition at 1000 µg/mL: 18.9 mm

## COc1cc([C@@H]2[C@H](Oc3ccc(Cl)cc3Cl)C(=O)N2c2sc3c(c2C#N)C=C(/C=C/c2c(C)nn(-c4ccccc4)c2Cl)CC3(C)C)cc(OC)c1OC
[1]
  zone of inhibition at 1000 µg/mL: 12.9 mm
[8]
  inhibition at 200 µg/mL: 50%
[2]
  zone of inhibition at 1000 µg/mL: 11.7 mm
[3]
  zone of inhibition at 1000 µg/mL: < 10 mm
[4]
  zone of inhibition at 1000 µg/mL: 10.6 mm
[5]
  zone of inhibition at 1000 µg/mL: 11.6 mm

## Cc1nn(-c2ccccc2)c(Cl)c1/C=C/C1=Cc2c(sc(N3C(=O)[C@@H](Oc4ccc(Cl)cc4Cl)[C@H]3c3ccccc3Cl)c2C#N)C(C)(C)C1 (relative stereo)
[6]
  inhibition at 200 µg/mL: 92%
[1]
  zone of inhibition at 1000 µg/mL: 17.8 mm
[8]
  inhibition at 200 µg/mL: 94%
[2]
  zone of inhibition at 1000 µg/mL: 10.6 mm
[3]
  zone of inhibition at 1000 µg/mL: 13.1 mm
[4]
  zone of inhibition at 1000 µg/mL: 11.3 mm
[9]
  inhibition at 200 µg/mL: 40%
[5]
  zone of inhibition at 1000 µg/mL: 18.7 mm
